Data from US20090169494A1, “Sunscreen cosmetic composition” (Shiseido Company Ltd, priority 2005, published 2009).

Experiment: Solubility of the triazine UV absorbent in oil components A-E
Type: physicochemical
Settings: dissolved at 80° C., three days stirring at 0° C., supernatant absorbance at 342.8 nm; FIG. 1
Method: Solubility of 2,4-bis[[4-(2-ethylhexyloxy)-2-hydroxy]phenyl]-6-(4-methoxyphenyl)-1,3,5-triazine in the following oil components A-E was measured.
2,4-bis[[4-(2-ethylhexyloxy)-2-hydroxy]phenyl]-6-(4-methoxyphenyl)-1,3,5-triazine is heated and dissolved at 80° C. in each of the aforementioned oil components A-E. After the temperature naturally cools down to room temperature, a small amount of 2,4-bis[[4-(2-ethylhexyloxy)-2-hydroxy]phenyl]-6-(4-methoxyphenyl)-1,3,5-triazine in powder form is added, followed by three days of stirring and cooling (stirrer) at 0° C. After this, the supernatant solution is quickly sampled before the temperature rises and 30 mg (actual measurement) of it is diluted to 100 mL of ethyl acetate. The absorbance at 342.8 nm of the obtained diluted solution is measured. The obtained absorbance is plotted against a previously prepared calibration curve to determine the solubility.

Row | Structure (SMILES) | Solubility of 2,4-bis[[4-(2-ethylhexyloxy)-2-hydroxy]phenyl]-6-(4-methoxyphenyl)-1,3,5-triazine in the oil component
1 | CCCCC(CC)COc1ccc(-n2nc3ccccc3n2)c(O)c1 (centres unmarked) [Oil component D, 2-[4-(2-ethylhexyloxy)-2-hydroxyphenyl]-2H-benzotriazole] | particularly good
2 | CC(C)COc1ccc(-n2nc3ccccc3n2)c(O)c1 [Oil component E, 2-(2-hydroxy-4-isobutoxyphenyl)-2H-benzotriazole] | particularly good
